In a melting point compilation (Tetko et al.; mined from patent text by program, amines drawn as free bases though some values may be those of a salt):

SMILES | melting point
COc1ccc2c(c1)N(C)C(=O)C2(C)C | 67 to 69 °C
CN1CC=C(c2c[nH]c3ccc(-c4cnc5[nH]cc(C(=O)C(C)(C)C)c5n4)cc23)CC1 | 263 to 265 °C
N=C(NCc1cccc(F)c1)N[N+](=O)[O-] | 177 to 179 °C
CC(C)CCCC(C)C1CCC2C3CC=C4CC(OCCCCCCSC5OCC(O)C(O)C5O)CCC4(C)C3CCC12C (stereo not given) | 115 °C
COc1ccc(C(=O)Nc2ccccc2)cc1NCc1ccc(N(C)C)cc1 | 195 to 197 °C
O=C(NC1CCN(CC(O)COc2cccc3ccccc23)CC1)c1ccccc1 (stereo not given) | 139 to 141 °C
O=C(O)C(C(=O)O)C1c2ccccc2CCc2ccccc21 | 183 °C
Cc1cc2n(n1)-c1ccc(Cl)cc1C(c1ccccc1)=NC2 | 105 to 107 °C
CC(=O)N(C)c1cccc(-c2ccnc3c(Cl)cnn23)c1 | 163 to 165 °C
COCC(=O)Nc1c(C(=O)CC(=O)Nc2nccs2)cccc1C(F)(F)F | 152 °C
CSc1nc(C)c(CCN2CC=C(c3c[nH]c4ccccc34)CC2)c(=O)n1C | 245 to 246 °C
Nc1cc(F)ccc1NC(c1ccccc1)c1ccccc1 | 120 °C
COc1c(C)c2c(c(O)c1C/C=C(\C)C(CC(=O)O)OC)C(=O)OC2 (stereo not given) | 133 to 135 °C
Nc1ccc(C(=O)N2Cc3ccccc3Cc3cc(Cl)ccc32)cc1 | 211 to 214 °C
COc1ccc2c(c1)C13CCN(C#N)C(C2)C1(OC)CCC(=O)C3 (stereo not given) | 172 to 176 °C
CN1CCN(c2cccc3ccc(O)cc23)CC1 | 112 °C

SMILES | melting point
CCC(=O)Nc1cc(C2=NCCO2)ccc1OCCCCCc1cc(C)no1 | 133 to 134 °C
OCCn1c2ccccc2c2c(N3CCCC3)nc(N3CCCC3)nc21 | 110 °C
CC1CC(=O)NN=C1c1ccc(NC(=O)OCC2CC2)cc1 (stereo not given) | 240 to 241 °C
CN1CCN(C2=Nc3cc(Br)ccc3-n3ccc4cccc2c43)CC1 | 164 to 166 °C
COc1cccc(C(=O)N2CCc3cc(S(=O)(=O)N4CCN(c5cccc(Cl)c5)CC4)ccc32)c1 | 155 to 156 °C
Cc1ccc2c(C(=O)C3CSC(c4cccnc4)N3)c[nH]c2c1 (stereo not given) | 132 to 138 °C
COc1ccc(N2CCCC2=O)cc1OC1CCCC1 | 130 to 131 °C
CCOC(=O)COc1ccc2cc(-c3oc4ccccc4c3CCC3CCCC3)ccc2c1Br | 115 to 120 °C
NC(=O)NN=Cc1ccc(OC2CCOCC2)cc1 | 208 to 209 °C
COc1cc2c(cc1OC)C(=O)C(=Cc1cc(C)c([N+](=O)[O-])c(C)c1)C2 | 242 to 243 °C
O=S(=O)(c1ccc(S)cc1)c1ccc(S)cc1 | 138 to 140 °C
CCC1(C)CCNC1=O (stereo not given) | 39 to 40 °C
CC(C)(C)OC(=O)CCc1cccc(-c2nc(=O)c3ccc(F)cc3s2)n1 | 158 to 160 °C
O=C(O)COc1ccc(SCc2ccc(OCc3ccc(F)cc3C(F)(F)F)cc2)c2c1CCC2 | 125 to 127 °C
COc1ccc(C(=O)N2CCCCc3cc(C4=NNC(=O)SC4C)ccc32)cc1OC (stereo not given) | 207 °C
Nc1nc(N)nc(-c2ccc(NS(=O)(=O)c3cccc4ccccc34)cc2)n1 | > 250 °C

Continued, values first:

melting point | SMILES
120 °C | Cc1cc(-n2ccnc2)c2cccc(OCc3c(Cl)ccc(S(=O)(=O)N4CCC[C@H]4C(=O)NCCCN4CCCC4)c3Cl)c2n1
166 to 167 °C | c1ccc(-c2nn3ccccc3c2-c2ccncc2)cc1
91 to 103 °C | CCOP(=O)(NCC(=O)OCc1ccccc1)C1CC(c2ccccc2)=NO1 (stereo not given)
189 to 190 °C | O=C(OCc1ccc(C(F)(F)F)cc1)N1CCC2(CC1)Cn1cc([N+](=O)[O-])nc1O2
207 to 208 °C | On1c(C(F)(F)F)nc2nc(Cl)c(Cl)cc21
145 to 148 °C | O=C(O)C1CCCN1S(=O)(=O)c1ccc(F)cc1 (stereo not given)
50.5 to 52 °C | Fc1ccccc1COC1COC(c2ccco2)OC1 (stereo not given)
127 to 129 °C | CN(CCOc1ccc(CCOCCc2ncn[nH]2)cc1)c1nc2ccccc2o1
150 to 152 °C | OCCN1CCN(C2=Nc3cc(Br)ccc3Oc3cscc32)CC1
199 to 200 °C | O=C1c2cccc(O)c2C(=O)c2ccsc21
156 to 157 °C | Cc1ccc(C(c2ccc(C)cc2)C2CN(Cc3ccc(O)cc3)CCC2=O)cc1 (stereo not given)
120 to 121 °C | O=C(Cc1cccnc1)[N+]1([O-])CCC(=C2c3ccc(Cl)cc3CCc3cccnc32)CC1 (stereo not given)
151 to 153 °C | Cc1ccc(Cn2ncn(-c3nc(C)c(C(=O)NCc4csc(C(C)C)n4)s3)c2=O)cc1
226 to 228 °C | CC1=C(C(=S)Cc2ccccc2)C(c2ccccc2)C2=C(N1)c1ccccc1C2=O (stereo not given)
61 to 65 °C | CC(C)C(NC(=O)Cn1cc(Cc2ccc(C(F)(F)F)cc2)cc(NC(=O)OCc2ccccc2)c1=O)C(=O)C(F)(F)F (stereo not given)
> 270 °C | CCCn1c(=O)c2[nH]c(C3CCCC3)nc2n(CCc2ccc(NC(C)=O)cc2)c1=O
32 to 33 °C | CCCCCCCCCCCCCCc1ccc(S(=O)(=O)Cl)cc1
188 to 191 °C | O=C(Nc1ccc(F)c(C(F)(F)F)c1)N1COc2cc(Oc3cc(Cl)ncn3)ccc21
